Patent publication US12606561B2, “Substituted pyrazolo[1,5-a][1,3,5]triazines as CDK inhibitors” (QURIENT CO., LTD., priority 2018, dated 2026)

What was measured:
[1] = biological target: T1, CDK1/Cyclin B (Homo sapiens, UniProt P06493); experiment: Enzymatic assay for CDK1 (LANCE Ultra kinase assay, FRET based); format: biochemical; conditions: ATP at Km; read-out: CDK1 enzymatic activity IC50
T1 construct: purchased Invitrogen PR4768C
Procedure, shortened: (§1)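 With ATP set at its Km, compounds were tested against purified CDK/cyclin complexes phosphorylating a ULight-labeled peptide. Signal came from FRET between the peptide and a Europium-labeled anti-phospho-antibody.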

[2] = biological target: T2, CDK2/Cyclin A (Homo sapiens, UniProt P24941); experiment: Enzymatic assay for CDK2 (LANCE Ultra kinase assay, FRET based); format: biochemical; conditions: ATP at Km
T2 construct: purchased Invitrogen PV6290
Procedure, shortened: (§2)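 Compounds tested as 8 doses in 4-fold steps against CDK2/Cyclin A ([…]) or CDK5/p25 ([…]), with ATP at its Km and 68 nM ULight-MBP substrate. After 60 min at 23° C., EDTA plus Eu-labelled anti-phospho-MBP added; TR-FRET (615/665 nm) read after another 60 min.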

[3] = biological target: T3, CDK5/p25 (Homo sapiens, UniProt Q00535); experiment: Enzymatic assay for CDK5 (LANCE Ultra kinase assay, FRET based); format: biochemical; conditions: ATP at Km
T3 construct: purchased Invitrogen PR8543B
T3 sequence (Q00535 whole entry): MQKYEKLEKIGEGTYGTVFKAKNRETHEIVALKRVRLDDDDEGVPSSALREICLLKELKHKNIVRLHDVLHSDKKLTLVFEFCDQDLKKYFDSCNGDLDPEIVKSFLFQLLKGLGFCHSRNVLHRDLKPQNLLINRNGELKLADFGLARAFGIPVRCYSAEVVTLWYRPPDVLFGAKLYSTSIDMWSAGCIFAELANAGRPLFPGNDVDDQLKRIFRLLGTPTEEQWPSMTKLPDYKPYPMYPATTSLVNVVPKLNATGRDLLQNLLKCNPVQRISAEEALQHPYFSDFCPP
T3 sequence (Q15078 99-307 partner limits assumed): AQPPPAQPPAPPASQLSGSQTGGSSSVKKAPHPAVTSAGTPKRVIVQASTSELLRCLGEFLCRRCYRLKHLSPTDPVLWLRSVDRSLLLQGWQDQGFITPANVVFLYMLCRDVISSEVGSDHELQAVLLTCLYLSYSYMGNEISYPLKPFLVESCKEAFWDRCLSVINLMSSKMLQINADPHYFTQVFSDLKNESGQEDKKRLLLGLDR
Procedure, shortened: as §2

[4] = biological target: T4, CDK7/Cyclin H/MNAT1 (Homo sapiens, UniProt P50613); experiment: Enzymatic assay for CDK7 (LANCE Ultra kinase assay, FRET based); format: biochemical; conditions: for IC50: ATP at Km
T4 construct: purchased Invitrogen PR6749B
T4 sequence (P50613 whole entry): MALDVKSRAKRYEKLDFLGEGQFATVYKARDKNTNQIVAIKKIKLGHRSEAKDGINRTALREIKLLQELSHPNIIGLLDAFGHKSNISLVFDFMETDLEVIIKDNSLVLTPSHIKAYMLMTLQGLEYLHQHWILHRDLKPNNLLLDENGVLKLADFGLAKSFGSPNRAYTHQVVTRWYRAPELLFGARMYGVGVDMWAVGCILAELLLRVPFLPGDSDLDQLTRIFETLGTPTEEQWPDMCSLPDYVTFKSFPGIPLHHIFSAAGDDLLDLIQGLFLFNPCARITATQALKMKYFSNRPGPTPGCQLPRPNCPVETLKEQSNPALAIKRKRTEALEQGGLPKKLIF
T4 sequence (P51946 whole entry partner): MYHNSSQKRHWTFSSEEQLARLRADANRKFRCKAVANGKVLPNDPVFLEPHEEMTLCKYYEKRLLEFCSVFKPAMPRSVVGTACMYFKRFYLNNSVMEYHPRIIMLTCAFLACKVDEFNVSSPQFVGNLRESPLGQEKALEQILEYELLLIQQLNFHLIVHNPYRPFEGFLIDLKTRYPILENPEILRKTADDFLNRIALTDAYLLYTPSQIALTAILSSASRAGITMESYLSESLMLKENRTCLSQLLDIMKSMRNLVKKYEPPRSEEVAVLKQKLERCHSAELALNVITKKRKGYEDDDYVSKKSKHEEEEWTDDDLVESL
T4 sequence (P51948 whole entry partner): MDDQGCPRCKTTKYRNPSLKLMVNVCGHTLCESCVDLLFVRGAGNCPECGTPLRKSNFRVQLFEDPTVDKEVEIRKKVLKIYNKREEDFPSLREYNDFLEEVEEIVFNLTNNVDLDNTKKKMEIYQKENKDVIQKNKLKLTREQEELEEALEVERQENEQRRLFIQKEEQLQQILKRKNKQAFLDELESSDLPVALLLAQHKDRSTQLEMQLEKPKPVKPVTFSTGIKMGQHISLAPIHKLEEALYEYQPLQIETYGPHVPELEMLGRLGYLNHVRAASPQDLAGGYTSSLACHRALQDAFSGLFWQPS
Procedure, shortened: as §1

[5] = tested on: A2780; experiment: A2780 viability assay (CellTiter-Glo, 72 hours); format: cell-based; conditions: Homo sapiens; A2780 cells
Procedure, shortened: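 After a 24 h attachment period, cells received a 0.0015–10 uM compound titration and were incubated 72 h at 37° C, 5% CO2. Viability came from CellTiter-Glo luminescence measured in duplicate.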

[6] = tested on: OVCAR-3; experiment: OVCAR-3 viability assay (CellTiter-Glo, 72 hours); format: cell-based; conditions: Homo sapiens; OVCAR-3 cells
Description: Human […] cell line, MV4-11_(ATCC, Cat #CRL-9591), NSCLC (Non-small cell lung cancer) cell line H460 (ATCC, Cat #HTB-177), A2780 (ECACC, Cat #93112519) and OVCAR-3(ATCC, Cat #HTB-161) were obtained from ATCC. Cells were grown in RPMI-1640 media (Invitrogen, Cat #22400-089) supplemented with 10% FBS (Invitrogen, Cat #10099141) and 1% penicillin/streptomycin (Invitrogen, Cat #15070063) and cultured at 37° C., 5% CO2 in a humidified chamber. All cell lines were routinely tested for mycoplasma.
To effect of the CDK7 inhibitor to inhibit the growth of target cancer cells, viability assay were conducted a 72 hour time period. Briefly, the candidate cell line was plated in 96 well plate at the following density of cells respectively. 1×10^4 cells/well for MV4-11, 5×10^3 for H460 and OVCAR-3, and 1×10^3 for A2780. After 24 hours, the cells were treated with various concentrations of the compound (ranging from 0.0015 uM to 10 uM). DMSO solvent without compound served as a control and final DMSO concentration lest than 0.1%. After 72 hours of incubation at 37° C., 5% CO2 incubator, cells were analyzed for the viability using the CellTiter-Glo Luminescent Cell Viability Assay (Promega, Cat #G7570). All viability assays were performed in duplicate and Luminescence was read using an Envision (Perkin Elmer, USA). Data was analyzed using XLfit software.

T1 sequence (P06493 whole entry): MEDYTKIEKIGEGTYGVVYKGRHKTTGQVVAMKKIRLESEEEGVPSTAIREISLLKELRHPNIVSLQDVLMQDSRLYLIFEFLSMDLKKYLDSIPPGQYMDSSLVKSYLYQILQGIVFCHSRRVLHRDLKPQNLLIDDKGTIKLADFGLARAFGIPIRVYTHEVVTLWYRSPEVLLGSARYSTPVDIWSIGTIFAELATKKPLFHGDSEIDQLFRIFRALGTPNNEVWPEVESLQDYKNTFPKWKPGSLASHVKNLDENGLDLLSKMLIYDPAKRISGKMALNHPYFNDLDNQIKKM
T1 sequence (P14635 whole entry partner): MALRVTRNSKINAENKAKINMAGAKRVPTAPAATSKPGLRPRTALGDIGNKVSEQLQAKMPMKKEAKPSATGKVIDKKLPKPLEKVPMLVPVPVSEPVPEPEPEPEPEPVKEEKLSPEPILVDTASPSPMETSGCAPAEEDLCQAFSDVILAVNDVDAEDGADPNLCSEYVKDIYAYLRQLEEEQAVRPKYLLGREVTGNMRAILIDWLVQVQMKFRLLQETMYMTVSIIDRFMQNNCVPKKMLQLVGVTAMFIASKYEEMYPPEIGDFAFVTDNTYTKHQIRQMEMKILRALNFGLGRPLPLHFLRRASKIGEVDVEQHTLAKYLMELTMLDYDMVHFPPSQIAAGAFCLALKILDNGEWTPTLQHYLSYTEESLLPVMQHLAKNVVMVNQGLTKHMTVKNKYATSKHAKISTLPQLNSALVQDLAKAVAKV

IC50 [1] | IC50 [2] | IC50 [3] | IC50 [4] | CDK1/CDK7: Selectivity of CDK7 inhibition over CDK1 inhibition [4] | CDK2/CDK7: Selectivity of CDK7 inhibition over CDK2 inhibition [4] | CDK5/CDK7: Selectivity of CDK7 inhibition over CDK5 inhibition [4] | IC50 [5] | IC50 [6] | Compound
> 1 µM | > 1 µM | > 1 µM | 0.1 to 1 µM | B (B indicates 50 < [fold] ≤ 500) | B (B indicates 50 < [fold] ≤ 500) | B (B indicates 50 < [fold] ≤ 500) | < 1 µM | < 1 µM | C=C(F)C(=O)Nc1ccc2c(-c3ccccc3CNc3nc(N4CCC(F)CC4)nc4c(C(C)C)cnn34)nccc2c1 [Compound 90]
> 1 µM | > 1 µM | > 1 µM | 0.1 to 1 µM | B (B indicates 50 < [fold] ≤ 500) | B (B indicates 50 < [fold] ≤ 500) | B (B indicates 50 < [fold] ≤ 500) | < 1 µM | < 1 µM | C=C(F)C(=O)Nc1ccc2c(-c3ccccc3CNc3cc(N4CCC(OC)CC4)nc4c(C(C)C)cnn34)nccc2c1 [Compound 91]
> 1 µM | > 1 µM | > 1 µM | 0.1 to 1 µM | B (B indicates 50 < [fold] ≤ 500) | B (B indicates 50 < [fold] ≤ 500) | B (B indicates 50 < [fold] ≤ 500) | < 1 µM | < 1 µM | C=C(F)C(=O)Nc1ccc2c(-c3ccccc3CNc3nc(NC4CCOC4)nc4c(C(C)C)cnn34)nccc2c1 (stereo not drawn) [Compound 92]
> 1 µM | > 1 µM | > 1 µM | > 1 µM | C (C indicates [fold] ≤ 50) | C (C indicates [fold] ≤ 50) | C (C indicates [fold] ≤ 50) | < 1 µM | 1 to 10 µM | C=C(F)C(=O)Nc1cccc2ccc(-c3cccc(C)c3CNc3nc(N4CCC(OC)CC4)nc4c(C(C)C)cnn34)nc12 [Compound 93]
> 1 µM | > 1 µM | > 1 µM | < 0.1 µM | A (A indicates [fold] > 500) | A (A indicates [fold] > 500) | A (A indicates [fold] > 500) | < 1 µM | < 1 µM | C=C(F)C(=O)Nc1ccc2c(-c3ccccc3CNc3cc(NCC4CNCCO4)nc4c(C(C)C)cnn34)nccc2c1 (stereo not drawn) [Compound 94]
> 1 µM | > 1 µM | > 1 µM | < 0.1 µM | A (A indicates [fold] > 500) | A (A indicates [fold] > 500) | A (A indicates [fold] > 500) | < 1 µM | < 1 µM | C=CC(=O)Nc1ccc2c(-c3ccccc3CNc3nc(N[C@H]4CC[C@H](OC)CC4)nc4c(C(C)C)cnn34)nccc2c1 [Compound 95]
> 1 µM | > 1 µM | > 1 µM | 0.1 to 1 µM | B (B indicates 50 < [fold] ≤ 500) | B (B indicates 50 < [fold] ≤ 500) | B (B indicates 50 < [fold] ≤ 500) | < 1 µM | < 1 µM | C=C(F)C(=O)Nc1ccc2c(-c3ccccc3CNc3nc(N[C@H]4CC[C@@H](OC)C4)nc4c(C(C)C)cnn34)nccc2c1 [Compound 96]
> 1 µM | > 1 µM | > 1 µM | 0.1 to 1 µM | B (B indicates 50 < [fold] ≤ 500) | B (B indicates 50 < [fold] ≤ 500) | B (B indicates 50 < [fold] ≤ 500) | < 1 µM | < 1 µM | C=C(F)C(=O)Nc1ccc2c(-c3ccccc3CNc3nc(NC4CC(OC)C4)nc4c(C(C)C)cnn34)nccc2c1 (stereo not drawn) [Compound 99]
> 1 µM | > 1 µM | > 1 µM | > 1 µM | C (C indicates [fold] ≤ 50) | C (C indicates [fold] ≤ 50) | C (C indicates [fold] ≤ 50) | 1 to 10 µM | 1 to 10 µM | C=C(F)C(=O)Nc1ccc2c(-c3ccccc3CNc3nc(N4CCCC(OC)CC4)nc4c(C(C)C)cnn34)nccc2c1 (stereo not drawn) [Compound 100]
> 1 µM | > 1 µM | > 1 µM | 0.1 to 1 µM | B (B indicates 50 < [fold] ≤ 500) | B (B indicates 50 < [fold] ≤ 500) | B (B indicates 50 < [fold] ≤ 500) | < 1 µM | < 1 µM | CC(C)c1cnn2c(NCc3ccccc3-c3nccc4cc(NC(=O)/C=C/CN(C)C)ccc34)nc(N3CCc4sccc4C3)nc12 [Compound 101]
> 1 µM | > 1 µM | > 1 µM | 0.1 to 1 µM | B (B indicates 50 < [fold] ≤ 500) | B (B indicates 50 < [fold] ≤ 500) | B (B indicates 50 < [fold] ≤ 500) | < 1 µM | < 1 µM | CC(C)c1cnn2c(NCc3ccccc3-c3nccc4cc(NC(=O)/C=C/CN(C)C)ccc34)nc(N3C[C@H]4CC[C@@H](C3)O4)nc12 [Compound 102]
> 1 µM | > 1 µM | > 1 µM | 0.1 to 1 µM | B (B indicates 50 < [fold] ≤ 500) | B (B indicates 50 < [fold] ≤ 500) | B (B indicates 50 < [fold] ≤ 500) | < 1 µM | < 1 µM | CC(C)c1cnn2c(NCc3ccccc3-c3nccc4cc(NC(=O)/C=C/CN(C)C)ccc34)nc(N3CC4COCC4C3)nc12 (stereo not drawn) [Compound 104]
> 1 µM | > 1 µM | > 1 µM | 0.1 to 1 µM | B (B indicates 50 < [fold] ≤ 500) | B (B indicates 50 < [fold] ≤ 500) | B (B indicates 50 < [fold] ≤ 500) | < 1 µM | < 1 µM | CC(C)c1cnn2c(NCc3ccccc3-c3nccc4cc(NC(=O)/C=C/CN(C)C)ccc34)nc(N3CCC(C#N)CC3)nc12 [Compound 105]
> 1 µM | > 1 µM | > 1 µM | 0.1 to 1 µM | C (C indicates [fold] ≤ 50) | C (C indicates [fold] ≤ 50) | C (C indicates [fold] ≤ 50) | < 1 µM | < 1 µM | CC(C)c1cnn2c(NCc3ccccc3-c3nccc4cc(NC(=O)/C=C/CN(C)C)ccc34)nc(N3CCC(=O)CC3)nc12 [Compound 106]

Compound | IC50 [1] | IC50 [2] | IC50 [3] | IC50 [4] | CDK1/CDK7: Selectivity of CDK7 inhibition over CDK1 inhibition [4] | CDK2/CDK7: Selectivity of CDK7 inhibition over CDK2 inhibition [4] | CDK5/CDK7: Selectivity of CDK7 inhibition over CDK5 inhibition [4] | IC50 [5] | IC50 [6]
COC1CC2CCC(C1)N2c1nc(NCc2ccccc2-c2nccc3cc(NC(=O)/C=C/CN(C)C)ccc23)n2ncc(C(C)C)c2n1 (stereo not drawn) [Compound 103] | > 1 µM | > 1 µM | > 1 µM | < 0.1 µM | B (B indicates 50 < [fold] ≤ 500) | B (B indicates 50 < [fold] ≤ 500) | B (B indicates 50 < [fold] ≤ 500) | < 1 µM | < 1 µM
